{"source": "patent US20100041672A1", "about": "“USE OF QUINOLINE DERIVATIVES IN THE TREATMENT OF PAIN AND IRRITABLE BOWEL SYNDROME” (GLAXO GROUP LIMITED, priority 2007, published 2010)", "key": {"male Sprague Dawley rats": {"system": "male Sprague Dawley rats", "experiment": "rat intra rectal mustard oil model of visceral pain", "type": "in vivo", "conditions": "behaviours counted 25 minutes", "description": "All behavioural responses consistent with the presence of pain were determined following intra rectal injection of mustard oil in male Sprague Dawley rats. Typical behavioural responses consistent with the presence of pain following intra-colonic mustard oil injection include: arching, abdominal lifting, abdominal tensing, stretching, extending the rear leg (when lying down), raising and lowering the testicles, tip-toeing and writhing.\nMale Sprague Dawley rats (130 g-160 g) were briefly sedated with 50% oxygen/50% carbon dioxide and 0.2 ml of 3% mustard oil injected into the colorectum, 1.5 cm from the anus. The anus was plugged with vaseline and animals placed in observational cages to which they had previously been acclimatised for 45 minutes prior to mustard oil injection. The number of visceral pain related behaviours, which consisted primarily of abdominal arching, were counted over a 25 minute period and the animals culled by cervical dislocation.\nIn separate studies, the effects of alosetron (0.1, 0.3 and 1.0 mg/kg n=10 per group), gabapentin (10, 30 and 100 mg/kg n=10 per group) and amitriptyline (3, 10 and 30 mg/kg n=9-10 per group) or vehicle (saline for alosetron and amitriptyline 10% 1-Methyl-2-pyrolidone in saline for gabapentin n=10 per study) given sub cutaneously 15 minutes prior to injection of 3% mustard oil were examined on pain behaviour. Results in FIGS. 4, 5 and 6 are expressed as mean±sem percentage of behaviours compared to vehicle treated animals and were statistically compared to vehicle treated animals using a one way ANOVA with Dunnett's comparison, p<0.05 considered significant.\nThe effect of SB742457 (0.03, 0.1, 1.0, 3.0 and 10 mg/kg, n=10 per group for the 0.03, 0.1 and 10 mg/kg groups, and n=20 for the 1.0 and 3.0 mg/kg groups) or vehicle (saline n=20) given orally 60 minutes prior to injection of mustard oil (3% mustard oil, 70% ethanol in saline) were examined on pain behaviour. The total number of visceral pain related behaviours, which consisted primarily of abdominal arching, were counted over a 25 minute period and the animals culled by cervical dislocation. Behaviours were normalised as the percentage of the vehicle group mean and expressed as mean+/−sem. Data was combined from two studies and normalised as the percentage of the vehicle group mean for each individual study and expressed as mean+/−sem for both studies. Percentage of behaviours compared to vehicle treated animals were analysed statistically using a one way ANOVA with Dunnett's comparison, p<0.05 considered significant, FIG. 10.\nThe effect of SB792988A (0.03, 0.1, 0.3, 1.0, 3.0 and 10 mg/kg, n=9 for 1.0 mg/kg, n=10 per group for the 0.03, 0.1 and 3.0 mg/kg groups, n=20 per group for the 0.3 and 10 mg/kg groups) or vehicle (saline n=20) given orally 60 minutes prior to injection of mustard oil (3% mustard oil, 70% ethanol in saline) were examined on pain behaviour. The total number of visceral pain related behaviours, which consisted primarily of abdominal arching, were counted over a 25 minute period and the animals culled by cervical dislocation. Behaviours were normalised as the percentage of the vehicle group mean and expressed as mean+/−sem. Data was combined from two studies and normalised as the percentage of the vehicle group mean for each individual study and expressed as mean+/−sem for both studies. Percentage of behaviours compared to vehicle treated animals were analysed statistically using a one way ANOVA with Dunnett's comparison, p<0.05 considered significant, FIG. 11."}, "rats [1]": {"system": "rats", "experiment": "FCA induced hypersensitivity rat model (intraplantar FCA, weight bearing)", "type": "in vivo", "conditions": "1 hour post dose; for weight bearing % reversal: 10 mg/kg p.o., 24 hrs after FCA", "description": "(§1) Naïve weight bearing readings were taken. The hypersensitivity to pain was measured using the Rat incapacitance tester (Linton instruments). All rats (180-220 g) received an intraplantar injection of 100 ul of FCA (Freund's complete adjuvant) into the left hind paw. The FCA was sonicated for 15 minutes prior to use. 24 hrs after administration of the FCA, pre-dose weight bearing readings were taken. All animals were then ranked and randomised for dosing according to their FCA window (predose difference in grams—naïve difference in grams). Rats with FCA window less than 30 were excluded from the study.\nAnimals were then dosed orally with either vehicle, SB42457 (0.01, 0.1, 1 and 10 mg/kg p.o.) or celecoxib (10 mg/kg p.o.) as appropriate according to ranking and randomisation. Animals were assessed in the weight bearing apparatus 1 hour post dose.\nThe study was blind and randomised by FCA window using the Latin square method. % reversals were calculated by using the naïve, pre-dose and post dose values as follows: % Reversal=[(Pre-dose−Post-dose)/(Pre-dose−Naïve)]×100.\nGraphs were plotted using Prism3. Statistical analysis was carried out using ANOVA and Fischer LSD test from statistical package Statistica 6.\nIn this study a positive control was also tested (celecoxib).\nas §1, with “(200-220” for “(180-220”\nAnimals were then dosed orally with vehicle, SB-792988-A (0.01, 0.1, 1 and 10 mg/kg p.o.), SB-399885-A (10 mg/kg p.o.) or celecoxib (10 mg/kg p.o.) as appropriate according to ranking and randomisation. Animals were assessed in the weight bearing apparatus 1 hour post dose.\nGraphs and were plotted using Prism3. Statistical analysis was carried out using ANOVA and Fischer LSD test from statistical package Statistica 6."}, "rats [2]": {"system": "rats", "experiment": "Chronic Constriction Injury (CCI) model of neuropathic pain in rats (mechanical allodynia, Von Frey hairs)", "type": "in vivo, rat", "conditions": "30 mg/kg b.i.d. po", "description": "Under Isoflurane anaesthesia, the sciatic nerve in the left leg of the rat was exposed at mid thigh level and 4 loose ligatures of Chromic 4.0 gut tied around it. The wound was closed and secured with staples. The Sham operated animals underwent the same surgical technique except that the nerve was not ligated. […] The presence of mechanical (tactile) allodynia was assessed using the manual application of Von Frey hair monofilaments (Stoelting, Wood Dale, Ill., USA). Animals were placed in clear Perspex boxes on a raised perforated metallic platform, from below which the monofilaments were applied in ascending order to the plantar region of the hind paw (range: 1.4 g-26 g). Each hair was applied for approx. 3-5 seconds until a withdrawal response was observed. The lowest hair to give a withdrawal was recorded as the response after confirmation with reapplication of lower and/or higher hairs within the range tested.\nAll data are expressed as mean±s.e.m. Statistical analysis was carried out using Repeated Measures ANOVA (Statistica Version 6) to compare the vehicle treated groups with the drug treated groups (P<0.05 considered significant). Area Under Curve (AUC) calculations were performed within Excel and statistical analysis was carried out using a one-way ANOVA followed by Fischer LSD post-hoc test (Statistica Version 6) to compare the vehicle treated CCI and Sham groups with the drug treated groups (P<0.05 considered significant). Data recorded in Excel (Microsoft XP) and graphs produced in GraphPad Prism (Version 4).\nBy 8 days post-surgery neuropathy was beginning to develop as mechanical allodynia (assessed using mVFHs) was evident in all CCI operated groups compared to the Sham operated animals. This was maintained as a stable baseline until day 23 post-surgery (FIG. 12), when the animals were randomised and then chronically dosed with either SB742457 (10 mg/kg b.i.d. po), gabapentin (30 mg/kg b.i.d. po) or vehicle (1% methylcellulose; b.i.d. po) for 8 days (days 26-33 post-surgery). […] Three days after cessation of treatment the withdrawal thresholds of the drug treated groups had decreased back towards vehicle treated baseline levels."}, "Random Hooded rats": {"system": "Random Hooded rats", "experiment": "rat joint pain model of chronic inflammatory pain (intra-articular FCA, hind paw weight bearing)", "type": "in vivo", "conditions": "for Statistics for hypersensitivity data (weight bearing), significance vs vehicle, Day 14: Day 14 post FCA; for Statistics for hypersensitivity data (weight bearing), significance vs vehicle, Day 15: Day 15 post FCA; for Statistics for hypersensitivity data (weight bearing), significance vs vehicle, Day 17: Day 17 post FCA", "description": "Random Hooded rats, 150-180 g, obtained from Charles River UK, were anaesthetised under gaseous anaesthetic and the area surrounding the left and right knee joint shaved and cleaned as for aseptic surgery. Animals were injected with 150 μl of FCA into the left knee joint (intra-articular injection). Animals were immediately allowed to recover from anaesthetic in a warmed/oxygenated environment until being returned to their home cage on paper bedding. No further post-op care was provided.\n(§2) Rats were tested prior to surgery and from 18 h post FCA (minimum of once weekly) for weight bearing (g) and joint diameter (mm). Weight bearing is measured by the animal's ability to place body weight across both hind paws on a Dual Channel Weight Averager which was calibrated each day prior to use using a 10 g weight (Rat capacitance tester—Linton Instruments). Hind paw weight bearing data was calculated and expressed as the percentage of the contralateral paw.\nAll data were expressed as mean±s.e.m.\n(§3) Prior to FCA intra-articular injection into the left knee, rats display even weight bearing. By day 1 post-insult weight bearing had shifted such that the majority of the body weight was transmitted through the contralateral limb. By day 10 this effect was maintained and at this point animals were randomised across treatment groups. Once daily dosing with vehicle, SB742457 or celecoxib began on day 13 and continued up to and including day 17.\nas §2, with “100” for “10”\nas §3, with “SB792988A” for “SB742457”, “17. […] AUC was calculated using Microsoft Excel.” for “17.”"}, "[3]": {"conditions": "10 mg/kg sub cutaneously 15 minutes prior to 3% mustard oil"}, "[4]": {"conditions": "30 mg/kg sub cutaneously 15 minutes prior to 3% mustard oil"}, "[5]": {"conditions": "30 mg/kg oral once daily from day 13, SB742457 study"}, "[6]": {"conditions": "30 mg/kg oral once daily from day 13, SB792988A study"}}, "data": [{"smiles": "CN(C)CCC=C1c2ccccc2CCc2ccccc21", "note": "[amitriptyline, reference compound]", "values": [{"measurement": "reduction in behaviours compared to vehicle treated animals", "setting": "male Sprague Dawley rats; 3 mg/kg sub cutaneously 15 minutes prior to 3% mustard oil", "result": 43, "unit": "%"}, {"measurement": "reduction in behaviours compared to vehicle treated animals", "setting": "male Sprague Dawley rats; [3]", "result": 73, "unit": "%"}, {"measurement": "reduction in behaviours compared to vehicle treated animals", "setting": "male Sprague Dawley rats; [4]", "result": 91, "unit": "%"}]}, {"smiles": "Cc1[nH]cnc1CN1CCc2c(c3ccccc3n2C)C1=O", "note": "[alosetron, reference compound]", "values": [{"measurement": "reduction in behaviours compared to vehicle treated animals", "setting": "male Sprague Dawley rats; 0.1 mg/kg sub cutaneously 15 minutes prior to 3% mustard oil", "result": 56, "unit": "%"}, {"measurement": "reduction in behaviours compared to vehicle treated animals", "setting": "male Sprague Dawley rats; 0.3 mg/kg sub cutaneously 15 minutes prior to 3% mustard oil", "result": 56, "unit": "%"}, {"measurement": "reduction in behaviours compared to vehicle treated animals", "setting": "male Sprague Dawley rats; 1.0 mg/kg sub cutaneously 15 minutes prior to 3% mustard oil", "result": 54, "unit": "%"}]}, {"smiles": "COc1ccc(S(=O)(=O)Nc2cc(Cl)cc(Cl)c2OC)cc1N1CCNCC1.Cl", "note": "[SB399885A, N-(3,5-dichloro-2-methoxy-phenyl)-4-methoxy-3-piperazin-1-yl-benzenesulfonamide hydrochloride, reference compound]", "values": [{"measurement": "weight bearing % reversal", "setting": "rats [1]; Table 7", "result": "15.26 ± 5.70", "unit": "%"}, {"measurement": "effect on FCA induced hypersensitivity", "setting": "rats [1]; p.o., intraplantar FCA", "result": "no effect"}]}, {"smiles": "NCC1(CC(=O)O)CCCCC1", "note": "[gabapentin, reference compound]", "values": [{"measurement": "reduction in behaviours compared to vehicle treated animals", "setting": "male Sprague Dawley rats; [3]", "result": 28, "unit": "%"}, {"measurement": "reduction in behaviours compared to vehicle treated animals", "setting": "male Sprague Dawley rats; [4]", "result": 50, "unit": "%"}, {"measurement": "reduction in behaviours compared to vehicle treated animals", "setting": "male Sprague Dawley rats; 100 mg/kg sub cutaneously 15 minutes prior to 3% mustard oil", "result": 69, "unit": "%"}, {"measurement": "reversal of mechanical allodynia after 5 days of dosing", "setting": "rats [2]; after 5 days of dosing", "result": "not significantly different to Sham levels"}, {"measurement": "reversal of mechanical allodynia after 8 days of dosing", "setting": "rats [2]; after 8 days of dosing", "result": "maximal reversal (P<0.001) back to Sham levels"}]}, {"smiles": "Cc1ccc(-c2cc(C(F)(F)F)nn2-c2ccc(S(N)(=O)=O)cc2)cc1", "note": "[celecoxib, reference compound]", "values": [{"measurement": "weight bearing % reversal", "setting": "rats [1]; Table 5", "result": "74.81 ± 8.79", "unit": "%"}, {"measurement": "weight bearing % reversal", "setting": "rats [1]; Table 7", "result": "73.00 ± 6.01", "unit": "%"}, {"measurement": "Statistics for hypersensitivity data, significance vs vehicle, AUC", "setting": "Random Hooded rats; 30 mg/kg oral once daily days 13-17, AUC, SB742457 study", "result": "*** (*** = p < 0.001)"}, {"measurement": "Statistics for hypersensitivity data (weight bearing), significance vs vehicle, Day 13", "setting": "Random Hooded rats; 30 mg/kg oral once daily from day 13, Day 13 post FCA, SB742457 study", "result": "* (* = p < 0.05)"}, {"measurement": "Statistics for hypersensitivity data (weight bearing), significance vs vehicle, Day 14", "setting": "Random Hooded rats; [5]", "result": "*** (*** = p < 0.001)"}, {"measurement": "Statistics for hypersensitivity data (weight bearing), significance vs vehicle, Day 14", "setting": "Random Hooded rats; [6]", "result": "* (* = p < 0.05)"}, {"measurement": "Statistics for hypersensitivity data (weight bearing), significance vs vehicle, Day 15", "setting": "Random Hooded rats; [5]", "result": "*** (*** = p < 0.001)"}, {"measurement": "Statistics for hypersensitivity data (weight bearing), significance vs vehicle, Day 15", "setting": "Random Hooded rats; [6]", "result": "*** (*** = p < 0.001)"}, {"measurement": "Statistics for hypersensitivity data (weight bearing), significance vs vehicle, Day 16", "setting": "Random Hooded rats; 30 mg/kg oral once daily from day 13, Day 16 post FCA, SB792988A study", "result": "*** (*** = p < 0.001)"}, {"measurement": "Statistics for hypersensitivity data (weight bearing), significance vs vehicle, Day 17", "setting": "Random Hooded rats; [5]", "result": "*** (*** = p < 0.001)"}, {"measurement": "Statistics for hypersensitivity data (weight bearing), significance vs vehicle, Day 17", "setting": "Random Hooded rats; [6]", "result": "*** (*** = p < 0.001)"}]}]}
